Experimental data as given in PubChem BioAssay AID624057 (Broad Institute, 2012).
Values joined by “and” are separate entries in the source; they are usually repeats but may differ in a detail not shown here. Identical values can stand only once. Active and inactive are the calls of the source. How the calls were made is not given here.

What was measured:
[1] = target: Glycogen synthase kinase-3 beta (Homo sapiens) (UniProt P49841); assay: lower pTau relative to total Tau in cells – cell-based, SH-SY5Y, ELISA, pTau Ser199, powder samples, dose response (AID 624057)
Chain of Glycogen synthase kinase-3 beta (Homo sapiens) (P49841 whole entry, looked up): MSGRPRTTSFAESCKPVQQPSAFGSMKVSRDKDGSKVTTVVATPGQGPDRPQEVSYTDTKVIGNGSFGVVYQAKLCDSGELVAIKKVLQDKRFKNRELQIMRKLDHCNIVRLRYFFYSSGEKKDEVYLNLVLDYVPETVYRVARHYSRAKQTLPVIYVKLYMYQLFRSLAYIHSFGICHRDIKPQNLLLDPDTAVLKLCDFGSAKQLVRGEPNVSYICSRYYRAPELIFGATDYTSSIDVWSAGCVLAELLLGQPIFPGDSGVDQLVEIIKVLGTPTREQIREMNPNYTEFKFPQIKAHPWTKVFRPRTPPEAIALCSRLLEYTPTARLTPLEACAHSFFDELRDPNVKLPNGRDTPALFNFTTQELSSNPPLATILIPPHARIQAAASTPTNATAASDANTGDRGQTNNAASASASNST

[2] = as above; details: measured here: cell survival (total Tau) top dose, at 35 µM, stronger effect = lower value

Row | IC50 [1] | SMILES | viability [2] [%]
1 | 4.68 µM | Cc1[nH]nc2c1C(c1cccc(C(F)(F)F)c1)C1=C(CC(C)(C)CC1=O)N2 (stereo not drawn) | 
2 | 7.1 µM | COc1ccccc1C1C2=C(CC(C)(C)CC2=O)Nc2n[nH]c(C)c21 (stereo not drawn) | 
3 | 1.38 µM | CC1(C)CC(=O)C2=C(C1)Nc1n[nH]c(C(F)(F)F)c1C2c1cccc(F)c1C(F)(F)F (stereo not drawn) | 57.1
4 | 1.87 µM | CC1(C)CC(=O)C2=C(C1)Nc1n[nH]c(C(F)(F)F)c1C2(C)c1ccccc1 (stereo not drawn) | 
5 | > 35 µM (inactive) | COc1ccccc1[C@H]1C2=C(CC(C)(C)CC2=O)Nc2n[nH]c(C(F)(F)F)c21 | 
6 | > 35 µM (inactive) | Cc1[nH]nc2c1[C@H](c1ccccc1C(F)(F)F)C1=C(CC(C)(C)CC1=O)N2 | 
7 | 4.24 µM | Cc1[nH]nc2c1C(c1ccccc1C(F)(F)F)C1=C(CC(C)(C)CC1=O)N2 (stereo not drawn) | 
8 | 0.41 µM | CC1(C)CC(=O)C2=C(C1)Nc1n[nH]c(C(F)(F)F)c1C2c1ccccc1C(F)(F)F (stereo not drawn) | 
9 | 2.5 µM | Cc1[nH]nc2c1C(c1cccc(C#N)c1)C1=C(CC(C)(C)CC1=O)N2 (stereo not drawn) | 119
10 |  | Cc1[nH]nc2c1C(c1ccccc1F)C1=C(CC(C)(C)CC1=O)N2 (stereo not drawn) | 113
11 | 0.51 µM | CC1(C)CC(=O)C2=C(C1)Nc1n[nH]c(C(F)(F)F)c1C2c1ccccc1 (stereo not drawn) | 
12 | 2.85 µM | CSc1ccccc1C1C2=C(CC(C)(C)CC2=O)Nc2n[nH]c(C)c21 (stereo not drawn) | 106
13 | 2.27 µM | Cc1[nH]nc2c1[C@@H](c1ccccc1C(F)(F)F)C1=C(CC(C)(C)CC1=O)N2 | 110
14 | 2.49 µM | Cc1[nH]nc2c1C(c1ccccc1Cl)C1=C(CC(C)(C)CC1=O)N2 (stereo not drawn) | 
15 | 2.75 µM and 0.76 µM | COc1ccccc1C1C2=C(CC(C)(C)CC2=O)Nc2n[nH]c(C(F)(F)F)c21 (stereo not drawn) | 
16 | 6.57 µM and > 35 µM (inactive) | COc1ccccc1[C@@H]1C2=C(CC(C)(C)CC2=O)Nc2n[nH]c(C)c21 | 
17 | 2.27 µM | Cc1[nH]nc2c1C(c1cccc3nonc13)C1=C(CC(C)(C)CC1=O)N2 (stereo not drawn) | 112
18 | 0.56 µM | COc1ccccc1[C@@H]1C2=C(CC(C)(C)CC2=O)Nc2n[nH]c(C(F)(F)F)c21 | 
